Measured values reported in US20240018147A1, “SALT OF COMPOUND FOR DEGRADING BTK, CRYSTAL FORM THEREOF, AND USE THEREOF IN MEDICINE” (HAISCO PHARMACEUTICALS PTE. LTD., priority 2020, published 2024).
Converted amounts (≈) assume the structure as drawn.

Key:
[1] = Crystal slurrying competition experiment of crystal forms; type: physicochemical; settings: room temperature; for relative stability of crystal forms from competition experiments: conclusion in words
Protocol: 6.2. Competitive experiments of crystal forms I, II and III of compound 1 were performed at room temperature to investigate the stability of the crystal forms in isopropyl acetate and a water/acetonitrile (v/v=1:1) solvent, and Competitive experiments of the crystal forms I and II of compound 3 were performed at room temperature to investigate the stability of the crystal forms in an ethanol/water (v/v=1:1) solvent and an acetone/water (v/v=1:1) solvent.

[2] = Pharmacokinetic test of dogs; type: in vivo; settings: Beagle dogs; for Having bioavailability or not / AUC(0-t): i.g. (10 mg/kg); for AUC(0-t): male, dog, po, plasma
Protocol: Experimental objective: in this experiment, a single dose of each test compound was administered to Beagle dogs intravenously and intragastrically, the concentrations of the test compounds in plasma of dogs were measured, and the pharmacokinetic characteristics and bioavailability of the test compounds in dogs were evaluated.
Experimental animal: male Beagle dogs (about 8-11 kg, […], 6 dogs/compound), purchased from Beijing Marshall Biotechnology Co. Ltd.
The animals were fasted but with water available for 14 to 18 hours one day before administration, and were fed 4 hours after administration.
Sampling: before and after administration, 1.0 ml of blood was taken from jugular veins, and placed in an EDTAK2 centrifuge tube. Centrifugation was carried out at 5000 rpm at 4° C. for 10 m, and the plasma was collected.
Time points for plasma collection in G1& G2 groups: 0, 5 min, 15 min, 30 mi 1 h, 2 h, 4 h, 6 h, 8 h, 10 h, […] and 24 h.
Before analysis and detection, all samples were stored at −80° C. The samples were detected by using HPLC-MS/MS.

[3] = Solubility in water at 25° C.; type: physicochemical
Protocol: 7. Solubility Data in Water at 25° C.

[4] = Chemical stability at high temperature (40° C.) and high humidity (RH 92.5%), purity by HPLC; type: physicochemical; settings: for Purity by HPLC, 0 day: 0 day (initial); for chemical stability: 40° C. and RH 92.5%, purity by HPLC, conclusion in words; for Purity by HPLC, 92.5% RH 30 days: high humidity 92.5% RH; for Purity by HPLC, 40° C. 30 days: high temperature 40° C.
Protocol: Samples were taken and tested at high temperature (40° C.) and under high humidity (RH 92.5%) respectively. The purity (represented by a percentage) was detected by HPLC.
With regard to methods for preparing test solutions and conditions for detecting purity by HPLC, reference was made to Tables 13, 14 and 15.

[5] = Stability of crystal form of compound 1 and compound 3 (XRD); type: physicochemical; settings: conclusion in words
Excerpt: 6.1. Stability of crystal form of compound 1 and compound 3.

[6] = listed as Amorphous form of compound 1
[7] = listed as Crystal form III of compound 1

Nc1ncnc2c1c(-c1ccc(Oc3ccccc3)cc1)nn2C1CCN(C2CN(C3CN(c4ccc5c(c4)C(=O)N(C4CCC(=O)NC4=O)C5=O)C3)C2)CC1.O=C(O)/C=C\C(=O)O.O=C(O)/C=C\C(=O)O (stereo not shown)
Experimental XRD result after crystal slurrying competition ([1]; acetone/water (v/v = 1:1), 3 days): Crystal form I | Experimental XRD result after crystal slurrying competition ([1]; ethanol/water (v/v = 1:1), 3 days): Crystal form I

Nc1ncnc2c1c(-c1ccc(Oc3ccccc3)cc1)nn2C1CCN(C2CN(C3CN(c4ccc5c(c4)C(=O)N(C4CCC(=O)NC4=O)C5=O)C3)C2)CC1 (stereo not shown) [5-[3-[3-[4-[4-amino-3-(4-phenoxyphenyl)pyrazolo[3,4-d]pyrimidin-1-yl]-1-piperidyl]azetidin-1-yl]azetidin-1-yl]-2-(2,6-dioxo-3-piperidyl)isoindoline-1,3-dione]
Experimental XRD result after crystal slurrying competition ([1]; isopropyl acetate, 2 days): Crystal form III | Experimental XRD result after crystal slurrying competition ([1]; water/acetonitrile (v/v = 1:1), 2 days): Crystal form III

Nc1ncnc2c1c(-c1ccc(Oc3ccccc3)cc1)nn2C1CCN(C2CN(C3CN(c4ccc5c(c4)C(=O)N(C4CCC(=O)NC4=O)C5=O)C3)C2)CC1 (stereo not shown) [Compound 1, 5-[3-[3-[4-[4-amino-3-(4-phenoxyphenyl)pyrazolo[3,4-d]pyrimidin-1-yl]-1-piperidyl]azetidin-1-yl]azetidin-1-yl]-2-(2,6-dioxo-3-piperidyl)isoindoline-1,3-dione]
oral bioavailability in dogs ([2]; intragastric vs intravenous, conclusion in words): a certain level of oral bioavailability | solubility in water ([3]; conclusion in words): a certain level of solubility

Nc1ncnc2c1c(-c1ccc(Oc3ccccc3)cc1)nn2C1CCN(C2CN(C3CN(c4ccc5c(c4)C(=O)N(C4CCC(=O)NC4=O)C5=O)C3)C2)CC1.O=C(O)C[C@H](O)C(=O)O [Compound 4, 5-[3-[3-[4-[4-amino-3-(4-phenoxyphenyl)pyrazolo[3,4-d]pyrimidin-1-yl]-1-piperidyl]azetidin-1-yl]azetidin-1-yl]-2-(2,6-dioxo-3-piperidyl)isoindoline-1,3-dione L-malate]
improvement of solubility as compared with compound 1 [3]: more than 15 times | solubility [3]: 158 µg/mL

Nc1ncnc2c1c(-c1ccc(Oc3ccccc3)cc1)nn2C1CCN(C2CN(C3CN(c4ccc5c(c4)C(=O)N(C4CCC(=O)NC4=O)C5=O)C3)C2)CC1.O=C(O)CC(O)(CC(=O)O)C(=O)O (stereo not shown) [Compound 5, 5-[3-[3-[4-[4-amino-3-(4-phenoxyphenyl)pyrazolo[3,4-d]pyrimidin-1-yl]-1-piperidyl]azetidin-1-yl]azetidin-1-yl]-2-(2,6-dioxo-3-piperidyl)isoindoline-1,3-dione citrate]
Having bioavailability or not [2]: Yes | increase of oral exposure amount as compared with compound 1 [2]: more than 2 times | AUC(0-t) [2]: 59.5 ± 21 ng·h/mL | Purity by HPLC, 0 day [4]: 98.44% | chemical stability [4]: relatively good chemical stability | Purity by HPLC, 92.5% RH 30 days [4]: 98.05% | improvement of solubility as compared with compound 1 [3]: more than 15 times | solubility [3]: 166 µg/mL

Nc1ncnc2c1c(-c1ccc(Oc3ccccc3)cc1)nn2C1CCN(C2CN(C3CN(c4ccc5c(c4)C(=O)N(C4CCC(=O)NC4=O)C5=O)C3)C2)CC1.O=C(O)C(O)C(O)C(=O)O [Compound 7, 5-[3-[3-[4-[4-amino-3-(4-phenoxyphenyl)pyrazolo[3,4-d]pyrimidin-1-yl]-1-piperidyl]azetidin-1-yl]azetidin-1-yl]-2-(2,6-dioxo-3-piperidyl)isoindoline-1,3-dione L-tartrate]
Having bioavailability or not [2]: Yes | increase of oral exposure amount as compared with compound 1 [2]: more than 2 times | AUC(0-t) [2]: 95.5 ± 65 ng·h/mL | improvement of solubility as compared with compound 1 [3]: more than 15 times | solubility [3]: 143 µg/mL

Nc1ncnc2c1c(-c1ccc(Oc3ccccc3)cc1)nn2C1CCN(C2CN(C3CN(c4ccc5c(c4)C(=O)N(C4CCC(=O)NC4=O)C5=O)C3)C2)CC1.O=C(O)C(=O)O (stereo not shown) [Compound 9, 5-[3-[3-[4-[4-amino-3-(4-phenoxyphenyl)pyrazolo[3,4-d]pyrimidin-1-yl]-1-piperidyl]azetidin-1-yl]azetidin-1-yl]-2-(2,6-dioxo-3-piperidyl)isoindoline-1,3-dione oxalate]
Having bioavailability or not [2]: Yes | increase of oral exposure amount as compared with compound 1 [2]: more than 2 times | AUC(0-t) [2]: 79.4 ± 20 ng·h/mL | Purity by HPLC, 0 day [4]: 98.67% | chemical stability [4]: relatively good chemical stability | Purity by HPLC, 92.5% RH 30 days [4]: 98.28% | improvement of solubility as compared with compound 1 [3]: more than 15 times | solubility [3]: 346 µg/mL

Nc1ncnc2c1c(-c1ccc(Oc3ccccc3)cc1)nn2C1CCN(C2CN(C3CN(c4ccc5c(c4)C(=O)N(C4CCC(=O)NC4=O)C5=O)C3)C2)CC1 (stereo not shown) [amorphous form of compound 1, 5-[3-[3-[4-[4-amino-3-(4-phenoxyphenyl)pyrazolo[3,4-d]pyrimidin-1-yl]-1-piperidyl]azetidin-1-yl]azetidin-1-yl]-2-(2,6-dioxo-3-piperidyl)isoindoline-1,3-dione]
stability of crystal form [5]: relatively good stability | Having bioavailability or not [2]: Yes | AUC(0-t) [2]: 26.9 ± 3.3 ng·h/mL | Purity by HPLC, 0 day [4, 6]: 98.88% | chemical stability [4]: relatively good chemical stability | Purity by HPLC, 92.5% RH 30 days [4, 6]: 98.82% | Purity by HPLC, 40° C. 30 days [4, 6]: 98.85% | solubility [3]: 9 µg/mL (≈ 12 µM)

Nc1ncnc2c1c(-c1ccc(Oc3ccccc3)cc1)nn2C1CCN(C2CN(C3CN(c4ccc5c(c4)C(=O)N(C4CCC(=O)NC4=O)C5=O)C3)C2)CC1.O=C(O)/C=C\C(=O)O.O=C(O)/C=C\C(=O)O (stereo not shown) [amorphous form of compound 3, 5-[3-[3-[4-[4-amino-3-(4-phenoxyphenyl)pyrazolo[3,4-d]pyrimidin-1-yl]-1-piperidyl]azetidin-1-yl]azetidin-1-yl]-2-(2,6-dioxo-3-piperidyl)isoindoline-1,3-dione dimaleate]
stability of crystal form [5]: relatively good stability

Nc1ncnc2c1c(-c1ccc(Oc3ccccc3)cc1)nn2C1CCN(C2CN(C3CN(c4ccc5c(c4)C(=O)N(C4CCC(=O)NC4=O)C5=O)C3)C2)CC1.O=C(O)/C=C\C(=O)O.O=C(O)/C=C\C(=O)O (stereo not shown) [crystal form I of compound 3, 5-[3-[3-[4-[4-amino-3-(4-phenoxyphenyl)pyrazolo[3,4-d]pyrimidin-1-yl]-1-piperidyl]azetidin-1-yl]azetidin-1-yl]-2-(2,6-dioxo-3-piperidyl)isoindoline-1,3-dione dimaleate]
Having bioavailability or not [2]: Yes | increase of oral exposure amount as compared with compound 1 [2]: more than 2 times | AUC(0-t) [2]: 75.1 ± 50 ng·h/mL | Purity by HPLC, 0 day [4]: 99.85% | chemical stability [4]: relatively good chemical stability | Purity by HPLC, 92.5% RH 30 days [4]: 99.76% | Purity by HPLC, 40° C. 30 days [4]: 99.74% | improvement of solubility as compared with compound 1 [3]: more than 15 times | solubility [3]: 172 µg/mL | relative stability of crystal forms from competition experiments [1]: most stable crystal form

Nc1ncnc2c1c(-c1ccc(Oc3ccccc3)cc1)nn2C1CCN(C2CN(C3CN(c4ccc5c(c4)C(=O)N(C4CCC(=O)NC4=O)C5=O)C3)C2)CC1 (stereo not shown) [crystal form III of compound 1, 5-[3-[3-[4-[4-amino-3-(4-phenoxyphenyl)pyrazolo[3,4-d]pyrimidin-1-yl]-1-piperidyl]azetidin-1-yl]azetidin-1-yl]-2-(2,6-dioxo-3-piperidyl)isoindoline-1,3-dione]
Purity by HPLC, 0 day [4, 7]: 99.41% | Purity by HPLC, 92.5% RH 30 days [4, 7]: 99.30% | Purity by HPLC, 40° C. 30 days [4, 7]: 99.28% | relative stability of crystal forms from competition experiments [1]: most stable crystal form
